{"source": "patent US20240325330A1", "about": "“NEW METHOD TO TREAT ACIDOSIS RELATED DISEASES WITH ACETOACETATE” (INSTITUT NATIONAL DE LA SANTÉ ET DE LA RECHERCHE MÉDICALE, priority 2021, published 2024)", "key": {"[1]": {"test_system": "PBMC from septic shock patients", "assay": "Intracellular ATP in PBMC from septic shock patients", "format": "cell-based, human", "settings": "5 mM AcAc, normalized on 0.5 g/L glucose, FIG. 1B", "method": "The intracellular levels of ATP in whole-cell lysates were determined with enzymatic assays (Abcam, Cambridge, UK), according to the manufacturer's instructions. ATP was quantified in (i) macrophages generated in the absence (Mφ) or presence of lactic acid (LA-Mφ) or of lactic acid and acetoacetate (LA-Mφ+AcAc), (ii) macrophages with or without depolarized mitochondria (“Depol” and “Pol” populations, respectively) isolated from day 3 LA-Mφ by flow cytometry using MitoTracker Green and MitoTracker Deep Red probes (purity>99%) and, (iii) PBMC isolated from septic shock patients (n=3) were cultured for 24 h in a medium containing 0.5 g/L glucose, supplemented with 5 mM of acetoacetate (AcAc) or with 2 g/L of glucose (Glc). Results are normalized on the condition 0.5 g/L glucose (None).\nPeripheral blood mononuclear cells (PBMC) from septic patients and healthy subjects were purified by standard density-gradient centrifugation on lymphocyte separation medium (Eurobio, Courtaboeuf, France). […] After 24 h culture, the percentage of cells with depolarized mitochondria was assessed as described above. After 3 days of culture, intracellular ATP has been quantified as described above."}, "[2]": {"test_system": "human monocytes differentiated into macrophages under lactic acidosis (LA-Mφ)", "assay": "Metabolite quantification in culture supernatants and acetyl-CoA in lysates", "format": "cell-based", "method": "(§1) Peripheral blood mononuclear cells (PBMC) were obtained from healthy human volunteers (Blood collection center, Angers, France; agreement ANG-2017-01) by standard density-gradient centrifugation on lymphocyte separation medium (Eurobio, Courtaboeuf, France). CD14+ monocytes were then isolated by positive magnetic cell-sorting (Miltenyi Biotec, Bergisch Gladbach, Germany). Monocytes (1×10^6 cells/mL) were cultured in complete medium (CM) consisting of RPMI 1640 (Lonza, Verviers, Belgium) supplemented with 10% fetal calf serum (FCS) (Eurobio), 2 mM L-glutamine, 1 mM sodium pyruvate, 0.1 mM non-essential amino acids, 10 mM HEPES, 100 U/mL penicillin and 100 μg/mL streptomycin (all from Lonza) in the presence of 50 ng/mL GM-CSF (R&D Systems, Minneapolis, MN).\nExperiments were performed in the presence of 10 mM lactic acid (Sigma-Aldrich, St Louis, MO) resulting in a pHe of 6.5 to generate LA-Mφ (lactic acidosis conditioning), 12.35 mM HCl to reach a final pHe of 6.5 and to generate HCl-Mφ(acidosis conditioning), 10 mM sodium lactate (Sigma-Aldrich) to generate lactate-Mφ (lactosis conditioning, pH 7.3), in the absence or presence of 5 mM lithium acetoacetate (AcAc) (Sigma-Aldrich, St Louis, MO).\nThe levels of glucose, glutamine, free L-amino acids and lactate in cell culture supernatants, and of acetyl-CoA in whole-cell lysates were determined, together with the intracellular ADP/ATP ratio, with enzymatic assays (Abcam), according to the manufacturer's instructions. […] Acetoacetate concentrations were quantified with β-hydroxybutyrate dehydrogenase (3-HBDH) (Roche Applied Science), an enzyme that catalyzes the reversible reduction of acetoacetate to β-hydroxybutyrate in the presence of excess NADH, with the concomitant oxidation of NADH. The progress of the reaction was monitored by measuring the decrease in 340 nm absorbance due to the conversion of NADH into NAD. AcAc consumption was determined by subtracting the concentration of AcAc in cell culture supernatants from that in cell-free culture supernatants."}, "[3]": {"test_system": "PBMC from septic shock patients", "assay": "Apoptosis of PBMC from septic shock patients (7-AAD, Annexin-V flow cytometry)", "format": "cell-based, human", "settings": "5 mM AcAc, FIG. 4E", "method": "Apoptosis was assessed by flow cytometry in freshly purified PBMC or after 3-day culture with or without AcAc. Cells were labeled with 7-AAD, Annexin-V FITC and anti-CD14 APC monoclonal antibody (all from BD Biosciences, San Jose, CA) and apoptotic monocytes were defined as CD14+ Annexin-V+ cells.\nPeripheral blood mononuclear cells (PBMC) from septic patients and healthy subjects were purified by standard density-gradient centrifugation on lymphocyte separation medium (Eurobio, Courtaboeuf, France). PBMC were cultured for 24 h in a medium consisting of RPMI 1640 medium with L-glutamine and without glucose (Lonza, Verviers, Belgium) and supplemented with 6% FCS (Eurobio), 3% autologous plasma, 0.5 g/L glucose, 100 U/mL penicillin and 100 μg/mL streptomycin (all from Lonza) in the presence of 2 ng/mL GM-CSF (R&D Systems). In some experiments, the culture medium was supplemented with 5 mM AcAc or adjusted to 4 g/L glucose. After 24 h culture, the percentage of cells with depolarized mitochondria was assessed as described above. After 3 days of culture, intracellular ATP has been quantified as described above."}, "[4]": {"test_system": "human monocytes differentiated into macrophages under lactic acidosis (LA-Mφ)", "assay": "Mitochondrial membrane potential (MitoTracker Green / Deep Red flow cytometry) in macrophages under lactic acidosis", "format": "cell-based", "settings": "5 mM AcAc, 10 mM lactic acid (pHe 6.5), LA-Mφ+AcAc vs LA alone; data not shown", "method": "as §1, with “MN). […]” for “MN).”\nMitochondrial membrane potential was assessed by incubating with 10 nM MitoTracker Green and 5 nM MitoTracker DeepRed (Thermo Fisher Scientific, Waltham, MA) in PBS containing 1% (w/v) BSA in PBS (PBS/BSA) at 37° C. for 15 min. […] Flow cytometry data were acquired with a FACSCanto II flow cytometer (BD Biosciences, San Jose, CA) and analyzed with FlowJo software (Tree Star, Ashland, OR)."}}}
{"smiles": "CC(=O)CC(=O)[O-].[Li+]", "note": "[AcAc, lithium acetoacetate]", "values": [{"measurement": "levels of intracellular ATP", "setting": "[1]", "result": "increased"}, {"measurement": "uptake of glucose and amino acids and production of lactate", "setting": "[2]; LA-Mφ in the presence of 5 mM AcAc, FIG. 2A-D", "result": "retain a partial capacity to take up glucose and amino acids and to produce lactate"}, {"measurement": "AcAc consumption by cells", "setting": "[2]; LA-Mφ+AcAc culture supernatants, days 1 and 3, FIG. 2F", "result": "consume AcAc"}, {"measurement": "intracellular AcCoA levels", "setting": "[2]; reduction induced by LA, in the presence of 5 mM AcAc", "result": "prevented the reduction of intracellular AcCoA levels"}, {"measurement": "protection of patient PBMCs from death by apoptosis", "setting": "[3]", "result": "drastically protects"}, {"measurement": "mitochondrial depolarization", "setting": "[4]", "result": "did not exhibit the mitochondrial depolarization"}]}
